In patent US9930893B2, “Inhibitors of DXP synthase and methods of use thereof” (The Johns Hopkins University, priority 2014, dated 2018):
Values after ≈ are worked out from the molar mass of the structure shown. Read-outs that look alike come from different tables or passages of the source.

Tests used:
[1] = biological target: Porcine pyruvate dehydrogenase (PDH E1 subunit); conditions: Table 5, value marked with reference superscript; cited from earlier work
[2] = biological target: T1, Porcine pyruvate dehydrogenase (PDH E1 subunit) (Sus scrofa, UniProt P29804); conditions: Table 5, value marked with reference superscript (previously reported); cited from earlier work
T1 construct: Ki^PDH; μM); Ki^PDH
T1 sequence (P29804 1-390): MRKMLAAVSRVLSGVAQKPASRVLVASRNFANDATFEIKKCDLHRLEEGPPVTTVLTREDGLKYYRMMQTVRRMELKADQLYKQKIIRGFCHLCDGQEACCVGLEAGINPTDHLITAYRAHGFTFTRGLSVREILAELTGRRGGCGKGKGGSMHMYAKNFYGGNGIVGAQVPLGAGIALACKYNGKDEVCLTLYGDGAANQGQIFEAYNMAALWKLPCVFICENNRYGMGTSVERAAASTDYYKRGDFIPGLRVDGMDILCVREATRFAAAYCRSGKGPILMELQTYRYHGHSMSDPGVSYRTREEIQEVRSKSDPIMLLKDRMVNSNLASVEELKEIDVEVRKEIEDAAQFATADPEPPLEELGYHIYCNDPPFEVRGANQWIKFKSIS

E. coli K-12 (BW25113) = assay: Antimicrobial activity against E. coli K-12 grown in M9 minimal medium; format: cell-based; conditions: M9 minimal medium; preliminary
Source text: The product of DXP synthase, DXP, lies at a metabolic branchpoint. DXP serves as precursor not only for essential isoprenoids, but also is essential to central metabolism as a precursor to both thiamin diphosphate and pyridoxal phosphate. Thus, evaluation of antimicrobial activity of DXP synthase inhibitors in the standard, rich growth medium (CAMHB) which contains rescuing metabolites, likely underestimates the antimicrobial activities of these agents. Standard in vitro culture conditions may have poor predictive value for these agents in vivo; access to most nutrients is thought to be more difficult from the host than in nutrient rich media.

E. coli DXP synthase [3] = biological target: T2, E. coli DXP synthase (Escherichia coli, UniProt P77488); assay: biochemical
T2 construct: made in house
Method: FIG. 4A, FIG. 4B, and FIG. 4C are charts showing competitive inhibition of DXP synthase by pentylacetylphosphonate (PentAP; FIG. 4A), hexylacetylphosphonate (HexAP; FIG. 4B), and octylacetyl phosphonate (OctAP; FIG. 4C). Inhibition assays were performed as previously described^[18], [40]). […] Pyruvate concentration was varied from 12-240 μM and acetylphosphonate concentration was varied: 0 μM (∘), 10 μM (●), 25 μM (□) and 50 μM (▪). Experiments were performed in triplicate, and data were subjected to non-linear regression analysis for Ki determinations (GraphPad Prism). Representative Lineweaver-Burk plots (GraFit from Erithacus Software) are shown for PentAP (FIG. 4A), HexAP (FIG. 4B) and OctAP (FIG. 4C) to illustrate the competitive inhibition mode with respect to pyruvate.
Inhibition of DXP synthase was measured as previously described^[13], [18]. […] Acetylphosphonate concentration was varied from 0 to 250 μM. […] Experiments were performed in triplicate for BAP and in duplicate for iPrAP
In order to evaluate the inhibitory activity of BnAP against DXP synthase, a continuous spectrophotometric coupled assay was used to measure formation of DXP by monitoring IspC consumption of NADPH (340 nm). ^[2] DXP synthase reaction mixtures (previously described) including BnAP (15, 30, and 60 μM), IspC (1 μM) and NADPH (100 μM) were pre-incubated at 37° C. for 5 minutes. Initial rates were measured after the reaction was initiated by the addition of DXP synthase. Inhibition of the coupling enzyme (IspC) by BnAP was not observed up to 1.5 mM. Experiments were performed in triplicate. Double reciprocal analysis of data was carried out using GraFit version 7 from Erithacus Software.

[4] = system: wild-type K-12 E. coli (ATCC: MG1655); assay: Antimicrobial activity against E. coli K-12 grown in CAMHB; format: cell-based
Method: FIG. 7A and FIG. 7B are charts showing representative growth curves are shown for BAP (FIG. 7A) and BnAP (FIG. 7B). Alkylacetylphosphonates exert dose-dependent delay in E. coli K-12 (MG 1655) growth in CAMHB. Fractional growth (measured at 16 h, blue arrow) was determined relative to the no drug control. Standardized cell cultures were exposed to increasing concentrations of acetylphosphonate, and growth was determined by measuring the OD600 for a period of 16 hours. Acetylphosphonate concentration was varied from 0-5 mM: No drug (light blue), 0.08 mM (orange), 0.16 mM (gray), 0.31 mM (yellow), 0.63 mM (blue), 1.25 mM (green), 2.5 mM (dark blue) and 5.0 mM (brown).
Thus, BnAP, PentAP, HexAP and OctAP, also shown to inhibit DXP synthase, were evaluated for antimicrobial activity against wild-type K-12 E. coli (ATCC: MG1655) grown in rich medium (CAMHB).

E. coli DXP synthase [5] = biological target: T2, E. coli DXP synthase; conditions: Table 5, value marked with reference superscript (previously reported); read-out: Ki^DXPS; cited from earlier work
porcine PDH E1 subunit = format: biochemical
Method: (§1) Reaction mixtures containing 100 mM HEPES, pH 8.0, 2 mM MgCl2, 5 mM NaCl, 1 mM ThDP, 1 mg/mL BSA, 10-20 mM pyruvate, 10% DMSO v/v, and 10-300 μM nitroso substrate were pre-incubated at 37° C. for 5 min. Enzymatic reactions were initiated by addition of 0.5-2 μM DXP synthase (or 0.1 units/ml PDH) and monitored spectrophotometrically by measuring the rate of disappearance of the nitroso substrate at its corresponding λmax. Substrate concentration as a function of time was determined from absorbance values using Beer's Law. Initial reaction rates were determined from the linear range of the reaction progress curve, usually within 1-3 min. Data analysis to determine kcat and Km for each alternative substrate was carried out using GraFit version 7 from Erithacus Software.

DXP synthase = biological target: T3, DXP synthase (Escherichia coli, UniProt P77488); assay: Inhibition of DXP formation by nitroso substrates (HPLC-based assay); format: biochemical, E. coli; conditions: 30 μM D-GAP, 80 μM pyruvate, 37° C.; average ± SEM
T3 construct: made in house
T3 sequence (P77488 1-620): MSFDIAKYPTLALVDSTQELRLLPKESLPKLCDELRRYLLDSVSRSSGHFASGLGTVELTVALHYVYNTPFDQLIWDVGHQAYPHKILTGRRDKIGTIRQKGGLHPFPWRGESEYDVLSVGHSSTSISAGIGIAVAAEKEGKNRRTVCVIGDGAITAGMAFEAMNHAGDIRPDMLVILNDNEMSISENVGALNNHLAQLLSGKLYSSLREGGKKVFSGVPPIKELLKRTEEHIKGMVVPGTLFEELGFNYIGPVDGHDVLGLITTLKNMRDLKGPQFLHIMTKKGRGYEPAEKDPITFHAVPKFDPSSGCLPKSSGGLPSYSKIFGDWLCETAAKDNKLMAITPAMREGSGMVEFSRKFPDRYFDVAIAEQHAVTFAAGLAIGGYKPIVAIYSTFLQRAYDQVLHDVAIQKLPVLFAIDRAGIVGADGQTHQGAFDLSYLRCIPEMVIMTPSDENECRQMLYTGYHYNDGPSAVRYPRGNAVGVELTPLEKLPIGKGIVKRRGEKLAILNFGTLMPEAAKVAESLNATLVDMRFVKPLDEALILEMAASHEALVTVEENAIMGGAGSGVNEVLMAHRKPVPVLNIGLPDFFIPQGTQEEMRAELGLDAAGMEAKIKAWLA
Method: Enzyme reactions were initiated by addition of 0.1 μM DXP synthase. Aliquots (150 μL) of the enzymatic mixture were removed between 0.5 and 3 minutes and quenched into ice-cold methanol (150 μL). Precipitated protein was removed by centrifugation, and the supernatant was diluted in an equal volume of water. The nitroso substrate was removed by extraction into acetonitrile (3×), using a previously described freeze-extraction technique. ^[32] […] The derivatization mixtures were analyzed by HPLC as previously described. ^[19] To determine initial reaction rates in the presence of varying inhibitor concentration, the D,L-GAP and DXP hydrazone HPLC peak areas were measured, and the product concentration was determined as a percent of total peak area and plotted against reaction time. Initial rates GraFit version 7 from Erithacus Software was utilized to generate IC50 curves.

yeast TK = biological target: T4, yeast TK (Saccharomyces cerevisiae, UniProt P23254); conditions: ref [26]; cited from earlier work
T4 sequence (P23254 1-680): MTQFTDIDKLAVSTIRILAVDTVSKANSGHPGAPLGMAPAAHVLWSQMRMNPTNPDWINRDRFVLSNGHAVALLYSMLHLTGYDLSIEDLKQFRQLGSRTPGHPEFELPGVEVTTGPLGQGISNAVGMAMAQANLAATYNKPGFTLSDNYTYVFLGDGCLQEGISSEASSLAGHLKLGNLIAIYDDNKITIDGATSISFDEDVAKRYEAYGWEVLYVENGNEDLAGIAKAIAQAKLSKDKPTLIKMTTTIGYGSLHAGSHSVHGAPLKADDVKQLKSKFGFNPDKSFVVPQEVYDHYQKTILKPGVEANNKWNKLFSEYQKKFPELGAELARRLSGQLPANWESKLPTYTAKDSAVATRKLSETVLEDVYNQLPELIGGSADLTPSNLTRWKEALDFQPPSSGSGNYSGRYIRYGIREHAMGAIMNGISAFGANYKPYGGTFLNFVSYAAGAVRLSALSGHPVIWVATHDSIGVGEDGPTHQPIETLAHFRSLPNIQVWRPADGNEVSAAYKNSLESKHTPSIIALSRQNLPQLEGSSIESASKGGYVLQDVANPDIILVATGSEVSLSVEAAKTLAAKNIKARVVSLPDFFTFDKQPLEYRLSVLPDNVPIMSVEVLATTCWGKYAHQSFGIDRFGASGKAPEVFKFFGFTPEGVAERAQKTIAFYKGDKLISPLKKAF

[6] = biological target: T5, E. coli DXP synthase (DXPS) (Escherichia coli, UniProt P77488); format: biochemical; conditions: 10-20 mM pyruvate, pH 8.0, 10% DMSO, 37° C., average ± SEM
T5 construct: made in house
T5 sequence (P77488 1-620): T3 sequence (P77488 1-620)
Method: Reaction mixtures containing 100 mM HEPES, pH 8.0, 2 mM MgCl2, 5 mM NaCl, 1 mM ThDP, 1 mg/mL BSA, 10-20 mM pyruvate, 10% DMSO, 0.5 mM 5 mM nitroso substrate were pre-incubated at 37° C. for 5 min. […] Aliquots of enzymatic mixture were removed at various time intervals and quenched into an equal volume of cold methanol. Quenched mixtures were incubated on ice for 20 minutes. Precipitated proteins were removed by centrifugation, and the supernatant was analyzed by HPLC with UV detection using the following conditions: Flow rate=3 mL/min; Solvent A: 100 mM NH4OAc, pH 4.6; Solvent B: acetonitrile; Method: 0-100% B over 10 min. New products formed were extracted from the supernatant using ethyl acetate (3×). […] Products were subsequently characterized by mass spectrometry.
as §1, with “Enzymatic reactions were initiated by addition of 0.5-2 μM DXP synthase (or 0.1 units/ml PDH) and monitored spectrophotometrically by measuring the rate of disappearance of the nitroso substrate at its corresponding λmax.” left out

SMILES	Ki^PDH/Ki^DXPS [1]	Ki [2] [µM]	MIC (E. coli K-12 (BW25113)) [µM]	IC50 (E. coli DXP synthase [3]; pyruvate 95 μM, D-GAP 56 μM, error 95% Confidence Interval, read-out: IC50 (DXP synthase)) [µM]	antimicrobial effects against E. coli (MG1655) ([4]; FIG. 10, in words)	minimum inhibitory concentration (MIC90) ([4]; rich medium (CAMHB), 16 h) [µM]	Ki (E. coli DXP synthase [5]) [µM]	Km (porcine PDH E1 subunit; 10-20 mM pyruvate, pH 8.0, 37° C., average ± SEM) [µM]	Km^PDH/Km^DXPS (porcine PDH E1 subunit; ratio porcine PDH E1 vs E. coli DXPS)	IC50 (E. coli DXP synthase [3]; Table 4, read-out: In vitro DXP syn IC50) [µM]	IC50 (DXP synthase) [µM]	substrate usage by yeast TK (yeast TK)	kcat ([6]; acceptor substrate turnover) [s⁻¹]	Km ([6]; acceptor substrate) [µM]
CCCCOP(=O)(O)C(C)=O [BAP, butylacetylphosphonate, reference compound]	60	335 ± 8	3100 (≈ 558 µg/mL)	24 ± 4	dose-dependent inhibition	2500 (≈ 450 µg/mL)	5.6 ± 0.8	–	–	–	–	–	–	–
COc1ccc(CCOP(=O)([O-])C(C)=O)cc1.[Li+] [Compound 4]	–	–	–	–	–	–	–	408 ± 60	7.5	194	844 ± 170	not a substrate	0.015 ± 0.0017	54 ± 13
